Source: US4956363A, “Treatment of cognitive and behavioral disorders associated with aging and with dementia syndromes” (U C B S.A., priority 1988, dated 1990)

Experiments:
male NMRI mice = assay: Toxicity, Irwin's test; assay type: in vivo
Method: Progressive doses of the compound to be tested are administered intraperitoneally to groups of three mice until the lethal dose is reached (dose which causes the death of two animals out of three within 48 hours).

[1] = system: learning of the avoidance reflex; assay: Multiple-trial passive avoidance: learning; assay type: in vivo, rats (male Sprague-Dawley); details: i.p. at the dose (mg/kg) of the line in Table V, 30 min before test; criterion 180 seconds on the mat
Method: To evaluate whether a compound can promote learning, the following test is carried out.
This experiment is repeated until the animal remains on the rubber mat for at least 180 seconds in order to avoid the electric shock. The learning is expressed by the average number of trials needed to reach a period of 180 seconds remaining on the mat.
A period of remaining on the rubber mat of 180 seconds is regarded as being the maximum performance which can be realized by the animal to avoid the electric shock. Rats which remain on the mat for this period have acquired the avoidance reflex and are replaced in their original cage without receiving the electric shock.
group 1 receives an intraperitoneal injection of physiological salt solution:
group 2 receives an intraperitoneal injection of the compound to be tested:
Columns 3 and 4 show the results obtained in the test used to evaluate the learning. The figures indicate the average number of trials needed for a control animal (group 1) or an animal treated (group 2) with the compound to learn to remain on the rubber mat for 180 seconds in order to avoid the electric shock. The results were analyzed by the Student test.

[2] = system: amnesia induced by scopolamine; assay: Multiple-trial passive avoidance: mnemic retention (amnesia induced by scopolamine); details: compound i.p. at the dose of the line + scopolamine 0.5 mg i.p.
Method: To this end, the method of multiple-trial passive avoidance has been used. This method is well-known for evaluating the effects which a product exerts on the memory and learning (A. FINE et al., Proc. Natl. Acad. Sci. U.S.A., 82, (1985), 5227-5230).
The test is carried out on male Sprague-Dawley rats (160-200 g). which are kept in standard cages throughout the experiment.
The apparatus used is a transparent square cage with 35 cm sides and 25 cm high, fitted with a grid floor which can be electrified. An insulating rubber mat (10×17 cm) is placed on the floor in one of the corners of the cage.
Each animal is subjected to four tests at times 0, 4, 24 and 28 hours. In the first test (time 0), the animal is placed on the rubber mat and the time which it takes to decide to leave this position to explore the cage is recorded. After 20 seconds of exploration, the rat receives an electric shock (3 seconds duration) in the paws, causing a flight reaction. The rat is immediately removed from the apparatus and replaced in its original cage. In the course of the three subsequent tests (times: 4, 24 and 28 hours), the animal is replaced on the rubber mat and the time taken to leave this position is recorded. When the four paws of the animal rest on the grid, it receives an electric shock and is immediately removed from the apparatus.
At the start of the experiment, the rats are divided into 4 homogeneous groups of 15 animals. Thirty minutes before each test, each group of animals is subjected to a predetermined treatment:
Groups 1 and 2 are used in the first experiment and groups 3 and 4 are used in the second experiment.
The differences observed are analyzed statistically by the Mann-Whitney method.

[3] = mice, i.p., death of two animals out of three within 48 hours

CCCc1nc(NCCOC(N)=O)nc(N2CCOCC2)n1 [Compound 42, 2-[[2-[(Aminocarbonyl)oxy]ethyl]amino]-4-morpholino-6-propyl-1,3,5-triazine]
Lethal dose (male NMRI mice; [3]): > 931 mg/kg

CCCc1nc(NCC(O)CO)nc(N2CCOCC2)n1 (stereo not drawn) [Compound 11]
Lethal dose (male NMRI mice; [3]): 892 mg/kg

CCCc1nc(N2CCOCC2)nc(N(C)C(=O)c2ccc(C)cc2)n1 [Compound 34]
Lethal dose (male NMRI mice; [3]): 1174 mg/kg

CCCc1nc(N2CCOCC2)nc(N(C)C(=O)c2ccc(OC)c(OC)c2)n1 [Compound 35]
Lethal dose (male NMRI mice; [3]): 401 mg/kg

CCCc1nc(NN(C)C)nc(N2CCOCC2)n1
Learning, average number of trials (group 2) [1]: 1.53
Period of remaining on the mat, group 4, 4 hours [2]: 55.3 s
Period of remaining on the mat, group 4, 24 hours [2]: 57.7 s
Period of remaining on the mat, group 4, 28 hours [2]: 87.9 s
Lethal dose (male NMRI mice; [3]): 799 mg/kg

CCCc1nc(NC(CC)CO)nc(N2CCOCC2)n1 (stereo not drawn)
Learning, average number of trials (group 2) [1]: 2.57
Period of remaining on the mat, group 4, 24 hours [2]: 22.5 s
Period of remaining on the mat, group 4, 28 hours [2]: 52.1 s
Lethal dose (male NMRI mice; [3]): 886 mg/kg

CCCc1nc(N2CCOCC2)nc(N(C)C(=O)c2ccc(OC)cc2)n1 [Compound 32]
Lethal dose (male NMRI mice; [3]): 1222 mg/kg

CCCc1nc(N2CCOCC2)nc(N(CCO)Cc2ccccc2)n1 [Compound 14]
Lethal dose (male NMRI mice; [3]): > 1073 mg/kg

CCCc1nc(N2CCOCC2)nc(N(C)C(=O)c2ccc(Cl)cc2)n1 [Compound 30]
Lethal dose (male NMRI mice; [3]): 1125 mg/kg

CCCc1nc(NC(C)=O)nc(N2CCOCC2)n1 [listing 1 of 2 here]
Lethal dose (male NMRI mice; [3]): 905 mg/kg

CCCc1nc(NCCOC(=O)C(C)C)nc(N2CCOCC2)n1 [Compound 38]
Lethal dose (male NMRI mice; [3]): > 1012 mg/kg

CCCc1nc(NC(C)(CO)CO)nc(N2CCOCC2)n1 [Compound 13]
Lethal dose (male NMRI mice; [3]): 934 mg/kg

CCCc1nc(N2CCOCC2)nc(N(C)C(=O)c2ccccc2)n1.Cl
Learning, average number of trials (group 2) [1]: 1.13
Period of remaining on the mat, group 4, time 0 ([2]; 0 h): 11.3 s
Period of remaining on the mat, group 4, 4 hours [2]: 88.6 s
Period of remaining on the mat, group 4, 24 hours [2]: 111.5 s
Period of remaining on the mat, group 4, 28 hours [2]: 133.5 s
Lethal dose (male NMRI mice; mouse, in vivo, ip): 1133 mg/kg

CCCc1nc(NC(C)(C)CO)nc(N2CCOCC2)n1 [Compound 8]
Lethal dose (male NMRI mice; [3]): 886 mg/kg

CCCc1nc(NCC2(O)CCCCC2)nc(N2CCOCC2)n1 [Compound 18]
Lethal dose (male NMRI mice; [3]): 1007 mg/kg

CCCc1nc(NCCCCO)nc(N2CCOCC2)n1 [Compound 4]
Lethal dose (male NMRI mice; [3]): 886 mg/kg

CCCc1nc(NC(=O)N(C)C)nc(N2CCOCC2)n1 [Compound 41, N,N-Dimethyl-N'-(4-morpholino-6-propyl-1,3,5-triazin-2-yl)-urea]
Learning, average number of trials (group 2) [1]: 1.33
Period of remaining on the mat, group 4, 4 hours [2]: 15.8 s
Period of remaining on the mat, group 4, 24 hours [2]: 27.3 s
Period of remaining on the mat, group 4, 28 hours [2]: 66.3 s
Lethal dose (male NMRI mice; [3]): 294 mg/kg

CCCc1nc(NC(=O)c2ccc(Cl)cc2)nc(N2CCOCC2)n1 [Compound 29]
Lethal dose (male NMRI mice; [3]): 398 mg/kg

CCCc1nc(NCCCO)nc(N2CCOCC2)n1 [Compound 3]
Lethal dose (male NMRI mice; [3]): 844 mg/kg

CCCc1nc(NO)nc(N2CCOCC2)n1 [Compound 2, 2-(hydroxyamino)-4-morpholino-6-propyl-1,3,5-triazine]
Lethal dose (male NMRI mice; [3]): 718 mg/kg

CCCc1nc(NC(=O)Oc2ccccc2)nc(N2CCOCC2)n1 [Compound 28, phenyl (4-morpholino-6-propyl-1,3,5-triazin-2-yl)carbamate]
Lethal dose (male NMRI mice; [3]): > 1030 mg/kg

CCCc1nc(NC[C@@H](C)O)nc(N2CCOCC2)n1 [Compound 17, (R)-3-[(4-morpholino-6-propyl-1,3.5-triazin-2-yl)amino]-2-propanol]
Lethal dose (male NMRI mice; [3]): 844 mg/kg

CCCc1nc(N2CCOCC2)nc(N(C)C(C)=O)n1 [listing 1 of 2 here]
Lethal dose (male NMRI mice; [3]): 947 mg/kg

CCCc1nc(NCCOC(C)=O)nc(N2CCOCC2)n1
Learning, average number of trials (group 2) [1]: 1.3
Period of remaining on the mat, group 4, 24 hours [2]: 44.4 s
Period of remaining on the mat, group 4, 28 hours [2]: 49.9 s
Lethal dose (male NMRI mice; [3]): 928 mg/kg

CCCc1nc(NCC(C)O)nc(N2CCOCC2)n1 (stereo not drawn) [Compound 5]
Lethal dose (male NMRI mice; [3]): 563 mg/kg

CCCc1nc(NCCOC)nc(N2CCOCC2)n1 [Compound 10, 2-[(2-methoxyethyl)amino]-4-morpholino-6-propyl-1,3,5-triazine]
Learning, average number of trials (group 2) [1]: 2.07
Period of remaining on the mat, group 4, 4 hours [2]: 15.7 s
Period of remaining on the mat, group 4, 24 hours [2]: 31.1 s
Period of remaining on the mat, group 4, 28 hours [2]: 34.1 s
Lethal dose (male NMRI mice; [3]): 844 mg/kg

CCCc1nc(NCCOC(=O)Cc2ccccc2)nc(N2CCOCC2)n1 [Compound 40]
Lethal dose (male NMRI mice; [3]): 1157 mg/kg

CCCc1nc(N2CCOCC2)nc(N(C)C(=O)C(C)C)n1
Lethal dose (male NMRI mice; [3]): 922 mg/kg

CCCc1nc(NC(=O)c2ccc(C)cc2)nc(N2CCOCC2)n1 [Compound 33]
Lethal dose (male NMRI mice; [3]): 1132 mg/kg

CCCc1nc(N2CCOCC2)nc(N(CCOC(C)=O)C(C)=O)n1
Lethal dose (male NMRI mice; [3]): 351 mg/kg

CCCc1nc(NC(=O)c2ccccc2)nc(N2CCOCC2)n1.Cl
Learning, average number of trials (group 2) [1]: 1.0
Period of remaining on the mat, group 4, 4 hours [2]: 70.9 s
Period of remaining on the mat, group 4, 24 hours [2]: 82.8 s
Period of remaining on the mat, group 4, 28 hours [2]: 137.6 s
Lethal dose (male NMRI mice; mouse, in vivo, ip): 1091 mg/kg

CCCc1nc(NC(=O)C(C)C)nc(N2CCOCC2)n1 [Compound 24]
Lethal dose (male NMRI mice; [3]): 880 mg/kg

CCCc1nc(NC(CO)(CO)CO)nc(N2CCOCC2)n1 [Compound 12]
Lethal dose (male NMRI mice; [3]): 982 mg/kg

CCCc1nc(NCC(O)CC)nc(N2CCOCC2)n1 (stereo not drawn) [Compound 6]
Lethal dose (male NMRI mice; [3]): 886 mg/kg

CCCc1nc(NC(=O)c2ccc(OC)cc2)nc(N2CCOCC2)n1 [Compound 31]
Lethal dose (male NMRI mice; [3]): 511 mg/kg

CCCc1nc(NC(=O)Cc2ccccc2)nc(N2CCOCC2)n1 [Compound 23]
Lethal dose (male NMRI mice; [3]): > 1024 mg/kg

CCCc1nc(NCCOC(=O)c2ccccc2)nc(N2CCOCC2)n1 [Compound 39]
Lethal dose (male NMRI mice; [3]): > 1114 mg/kg

CCCc1nc(N2CCOCC2)nc(N(C)C(C)=O)n1 [listing 2 of 2 here]
Learning, average number of trials (group 2) [1]: 2.07
Period of remaining on the mat, group 4, 24 hours [2]: 34.7 s
Period of remaining on the mat, group 4, 28 hours [2]: 44.5 s
Lethal dose (male NMRI mice; [3]): 838 mg/kg

CCCc1nc(NC(C)=O)nc(N2CCOCC2)n1 [listing 2 of 2 here]
Learning, average number of trials (group 2) [1]: 1.53
Period of remaining on the mat, group 4, 4 hours [2]: 60.4 s
Period of remaining on the mat, group 4, 24 hours [2]: 74.6 s
Period of remaining on the mat, group 4, 28 hours [2]: 102.4 s
Lethal dose (male NMRI mice; [3]): 996 mg/kg

CCCc1nc(NCCO)nc(N2CCOCC2)n1
Learning, average number of trials (group 2) [1]: 1.53
Period of remaining on the mat, group 4, 4 hours [2]: 44.8 s
Period of remaining on the mat, group 4, 24 hours [2]: 61.3 s
Period of remaining on the mat, group 4, 28 hours [2]: 102.7 s
Lethal dose (male NMRI mice; [3]): 802 mg/kg

CCCc1nc(NC(=O)c2ccc(C)c(C)c2)nc(N2CCOCC2)n1 [Compound 36]
Lethal dose (male NMRI mice; [3]): 1174 mg/kg

CCCc1nc(NC[C@H](C)O)nc(N2CCOCC2)n1 [Compound 16, (S)-3-[(4-morpholino-6-propyl-1,3,5-triazin-2-yl)amino]-2-propanol]
Lethal dose (male NMRI mice; [3]): 844 mg/kg

CCCc1nc(N2CCOCC2)nc(N2CCCC2CO)n1 (stereo not drawn) [Compound 19]
Lethal dose (male NMRI mice; [3]): 1031 mg/kg

CCCc1nc(NC(CO)C(O)c2ccccc2)nc(N2CCOCC2)n1 (stereo not drawn) [Compound 15]
Lethal dose (male NMRI mice; [3]): 1121 mg/kg

CCCc1nc(N(C)CCO)nc(N2CCOCC2)n1
Learning, average number of trials (group 2) [1]: 2.0
Period of remaining on the mat, group 4, 4 hours [2]: 67.9 s
Period of remaining on the mat, group 4, 24 hours [2]: 62.7 s
Period of remaining on the mat, group 4, 28 hours [2]: 160.3 s
Lethal dose (male NMRI mice; [3]): 844 mg/kg
